Source: PubChem BioAssay (NCI)
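Here, GI50 denotes the concentration required for 50% inhibition of growth. TGI denotes the concentration required for complete inhibition of growth.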

What was measured:
Experiment in all cases: inhibition of tumour cell growth, NCI panel, 384-well format
KM12 colon = test system: KM12 colon
OVCAR-3 ovarian = test system: OVCAR-3 ovarian
HOP-62 NSCLC = test system: HOP-62 NSCLC
CAKI-1 renal = test system: CAKI-1 renal
RXF 393 renal = test system: RXF 393 renal
UACC-62 melanoma = test system: UACC-62 melanoma
SNB-19 CNS = test system: SNB-19 CNS
HOP-92 NSCLC = test system: HOP-92 NSCLC
SN12C renal = test system: SN12C renal
NCI-H460 NSCLC = test system: NCI-H460 NSCLC
HL-60(TB) leukemia = test system: HL-60(TB) leukemia
U251 glioblastoma = test system: U251 glioblastoma
ACHN renal = test system: ACHN renal
RPMI-8226 leukemia = test system: RPMI-8226 leukemia
NCI-H522 lung = test system: NCI-H522 lung
SK-MEL-5 melanoma = test system: SK-MEL-5 melanoma
M14 melanoma = test system: M14 melanoma
SF-268 CNS = test system: SF-268 CNS
SK-MEL-28 melanoma = test system: SK-MEL-28 melanoma
NCI-H23 lung = test system: NCI-H23 lung
NCI-H322M lung = test system: NCI-H322M lung
MDA-MB-231 breast = test system: MDA-MB-231 breast
786-0 renal = test system: 786-0 renal
SF-539 CNS = test system: SF-539 CNS
MDA-MB-468 breast = test system: MDA-MB-468 breast
UO-31 renal = test system: UO-31 renal
HS 578T breast = test system: HS 578T breast
BT-549 breast = test system: BT-549 breast
HCC-2998 colon = test system: HCC-2998 colon

Structure (SMILES): COc1ccc(F)cc1-c1ccnc2[nH]c(C3=CCN(C4CCC(CC(=O)O)CC4)CC3)cc12 (stereo not given)
- TGI (KM12 colon): 240 nM
- GI50 (OVCAR-3 ovarian): 33.4 nM
- TGI (OVCAR-3 ovarian): 183 nM
- GI50 (HOP-62 NSCLC): 52.4 nM
- TGI (HOP-62 NSCLC): 194 nM
- GI50 (CAKI-1 renal): 111 nM
- TGI (CAKI-1 renal): 465 nM
- GI50 (RXF 393 renal): 18.3 nM
- TGI (RXF 393 renal): 53.7 nM
- GI50 (UACC-62 melanoma): < 16.4 nM
- TGI (UACC-62 melanoma): 87.5 nM
- GI50 (SNB-19 CNS): 78.7 nM
- TGI (SNB-19 CNS): > 68300 nM
- GI50 (HOP-92 NSCLC): 94.1 nM
- GI50 (SN12C renal): 59.7 nM
- TGI (SN12C renal): 282 nM
- GI50 (NCI-H460 NSCLC): 63.4 nM
- TGI (NCI-H460 NSCLC): 183 nM
- GI50 (HL-60(TB) leukemia): 15.1 nM
- TGI (HL-60(TB) leukemia): 32.5 nM
- GI50 (U251 glioblastoma): 142 nM
- TGI (U251 glioblastoma): 490 nM
- GI50 (ACHN renal): 156 nM
- GI50 (RPMI-8226 leukemia): 42.2 nM
- TGI (RPMI-8226 leukemia): 138 nM
- GI50 (NCI-H522 lung): 131 nM
- TGI (NCI-H522 lung): 306 nM
- GI50 (SK-MEL-5 melanoma): 48.7 nM
- TGI (SK-MEL-5 melanoma): 156 nM
- GI50 (M14 melanoma): 87.2 nM
- TGI (M14 melanoma): 304 nM
- GI50 (SF-268 CNS): 22.3 nM
- TGI (SF-268 CNS): 84.4 nM
- GI50 (SK-MEL-28 melanoma): 39.1 nM
- TGI (SK-MEL-28 melanoma): 202 nM
- GI50 (NCI-H23 lung): 49.5 nM
- TGI (NCI-H23 lung): 195 nM
- GI50 (NCI-H322M lung): 113 nM
- TGI (NCI-H322M lung): 367 nM
- GI50 (MDA-MB-231 breast): 70.1 nM
- TGI (MDA-MB-231 breast): 362 nM
- GI50 (786-0 renal): 82.4 nM
- TGI (786-0 renal): 266 nM
- GI50 (SF-539 CNS): 104 nM
- TGI (SF-539 CNS): 277 nM
- GI50 (MDA-MB-468 breast): 34.1 nM
- TGI (MDA-MB-468 breast): 118 nM
- GI50 (UO-31 renal): 102 nM
- TGI (UO-31 renal): 691 nM
- GI50 (HS 578T breast): 19 nM
- TGI (HS 578T breast): 55.7 nM
- GI50 (BT-549 breast): 53.4 nM
- TGI (BT-549 breast): 145 nM
- GI50 (HCC-2998 colon): 110 nM
- TGI (HCC-2998 colon): 432 nM
